Assay results published in patent publication US5451407A, “Reduction or prevention of skin irritation or sensitization during transdermal administration of a irritating or sensitizing drug” (ALZA Corporation, priority 1993, dated 1995).

Key:
[1] = system: elicitation of sensitization to propranolol; experiment: Effect of methyl nicotinate on the elicitation of sensitization to propranolol (Minolta Chroma Meter); assay type: in vivo, adult male known to be sensitized to propranolol; settings: 0.05 w/v percent methyl nicotinate with 0.1 w/v percent propranolol base, two hours application, upper arm; recorded two and three days later; FIG. 6
Source text: The following formulations were made to determine the effect of methyl nicotinate on the elicitation of sensitization to propranolol:
1) 0.1 w/v percent propranolol base, 32 w/v percent ethanol, 5 w/v percent HEPPS, 2 w/v percent hydroxyethylcellulose, NaOH q.s. pH 8 and distilled water q.s., and
2) 0.1 w/v percent propranolol base, 0.05 w/v percent methyl nicotinate, 32 w/v percent ethanol, 5 w/v percent HEPPS, 2 w/v percent hydroxyethylcellulose, NaOH q.s. pH 8 and distilled water q.s.
0.020 ml of each formulation was placed in a Finn® chamber. The chambers were applied to four sites on the upper arm of an adult, who was known to be sensitized to propranolol. After two hours the chambers were removed and the sites washed. The intensity of the reaction was recorded two and three days later using the mean a* measurement recorded by a Minolta® Chroma Meter.

[2] = system: sensitization and elicitation of sensitization to tetracaine; experiment: Sensitization and elicitation reactions to tetracaine at 72 hours, Minolta Chroma Meter; assay type: in vivo, hairless guinea pigs; settings: for a" value: challenge 1% tetracaine, alone or + 1% methyl nicotinate, Minolta Chroma Meter
Source text: The Minolta® Chroma Meter converts all colors within the range of human perception into a numerical code using the L*, a* and b* notation system. L* expresses brightness on the black-white axis; a* expresses hue on the red-green axis; and b* expresses chroma on the yellow-blue axis so that a specific numerical code enables an exact color description of an object. Minolta® measurements were made by taking the mean a* value of three readings at the treated site.
(§1) After the ninth induction exposure, the animals received no treatment for two weeks. The following formulations were used to determine the effect of methyl nicotinate on the sensitization and elicitation of sensitization to tetracaine during the challenge phase:
(§2) 1) 1 w/v percent tetracaine HCl, 28 w/v percent ethanol, 5 w/v percent HEPPS, 2 w/v percent hydroxypropylcellulose, NaOH q.s. pH 8 and distilled water q.s.,
(§3) 2) 1 w/v percent tetracaine HCl, 1.0 w/v percent methyl nicotinate, 28 w/v percent ethanol, 5 w/v percent HEPPS, 2 w/v percent hydroxypropylcellulose, NaOH q.s. pH 8 and distilled water q.s., and
(§4) 3) 28 w/v percent ethanol, 5 w/v percent HEPPS, 2 w/v percent hydroxypropylcellulose, NaOH q.s. pH 8 and distilled water q.s.
(§5) 0.1 ml of each formulation was placed in a Finn® chamber. The chamber was then applied to the backs of the animals for 6 hours on previously untreated sites.
The test sites of the animals were then scored using a Minolta® Chroma Meter.

[3] = system: chloroquine-induced irritation; experiment: Effect of methyl nicotinate on chloroquine-induced irritation (Finn chamber, Minolta Chroma Meter); assay type: in vivo, adult human male; settings: 0.05 w/v methyl nicotinate with chloroquine base 1% w/v, 16 hours application, human forearm; scored 3 hours to 7 days; FIG. 5
Source text: The following formulations were made to determine the effect of methyl nicotinate on chloroquine-induced irritation:
1) chloroquine base 1% w/v, ethanol 24% w/v, HEPPS 5% w/v, hydroxyethylcellulose gel 2% w/v, NaOH q.s. pH 8.5 and distilled water q.s.,
2) chloroquine base 1% w/v, methyl nicotinate 0.05 w/v, ethanol 24% w/v, HEPPS 5% w/v, hydroxyethylcellulose gel 2% w/v, NaOH q.s. pH 8.5 and distilled water q.s.,
3) methyl nicotinate 0.05 w/v, ethanol 24% w/v, HEPPS 5% w/v, hydroxyethyl cellulose gel 2% w/v, NaOH q.s. pH 8.5 and distilled water q.s., and
4) ethanol 24% w/v, HEPPS 5% w/v, hydroxyethylcellulose gel 2% w/v, NaOH q.s. pH 8.5 and distilled water q.s.
0.020 ml of each formulation was placed in a Finn® chamber. The chambers were inverted and applied to four skin sites on the forearm of an adult human. […] At 3 hours, 8 hours, 1 day, 2 days, 3 days, 4 days, 6 days and 7 days thereafter, the sites were observed and the intensity of the irritant reaction was scored with a Minolta® Chroma Meter.
The Minolta® Chroma Meter converts all colors within the range of human perception into a numerical code using the L*, a* and b* notation system. […] Minolta® measurements were made by taking the mean a* value of three readings at the treated site. That result was then subtracted from the mean a* value of three readings at adjacent sites treated with a placebo formulation.

[4] = system: sensitization and elicitation of sensitization to tetracaine; experiment: Sensitization and elicitation of sensitization to tetracaine during the challenge phase, visual score; assay type: in vivo, hairless guinea pigs; design: scale not given here; settings: challenge 1% tetracaine, alone or + methyl nicotinate (1.0 w/v percent), Table 1 scale
Source text: as §1, §2, §3, §4, §5

[5] = system: cumulative irritation produced by tetracaine HCl; experiment: Cumulative irritation produced by tetracaine HCl during the induction phase, visual score; assay type: in vivo, hairless guinea pigs; settings: 2% tetracaine, alone or + 1% methyl nicotinate, Table 1 scale (total possible score 8)
Source text: The following formulations were made to determine the effect of methyl nicotinate on the cumulative irritation produced by tetracaine HCl during the induction phase:
1) 2 w/v percent tetracaine HCl, 28 w/v percent ethanol, 5 w/v percent HEPPS, 2 w/v percent hydroxypropylcellulose, NaOH q.s. pH 8 and distilled water q.s.,
2) 2 w/v percent tetracaine HCl, 1.0 w/v percent methyl nicotinate, 28 w/v percent ethanol, 5 w/v percent HEPPS, 2 w/v percent hydroxypropylcellulose, NaOH q.s. pH 8 and distilled water q.s., and
as §4
0.1 ml of each formulation was placed in a Finn® chamber, and applied to the back of a hairless guinea pigs (Charles River). After 6 hours the chambers were removed. This was repeated a total of nine times. The inductions were alternated between two sites, such that one site received five applications and the other site received four applications. Two, 24 and 48 hours after removal of the first, fourth, seventh and ninth applications, the treatment sites were scored to assess irritation.

## COC(=O)c1cccnc1 [methyl nicotinate]
[1]
  elicitation of the sensitization reaction (mean a* value): inhibited the elicitation of the sensitization reaction
[2]; FIG. 9
  elicitation reaction to tetracaine (Minolta scores): decreased
  sensitization reaction to tetracaine (Minolta scores): decreased
[3]
  irritant reaction (mean a* value): reduced the irritant reaction

## CCCCNc1ccc(C(=O)OCCN(C)C)cc1 [tetracaine]
[4]; induction 2% tetracaine + 1% methyl nicotinate, 2 h after removal
  visual score of challenge site: 2.8
[4]; induction 2% tetracaine + 1% methyl nicotinate, 24 h after removal
  visual score of challenge site: 2.3
[4]; induction 2% tetracaine + 1% methyl nicotinate, 48 h after removal
  visual score of challenge site: 2.1
[4]; induction 2% tetracaine + 1% methyl nicotinate, 72 h after removal
  visual score of challenge site: 2.0
[4]; induction 2% tetracaine, 2 h after removal
  visual score of challenge site: 3.4
[4]; induction 2% tetracaine, 24 h after removal
  visual score of challenge site: 2.5
[4]; induction 2% tetracaine, 48 h after removal
  visual score of challenge site: 2.2
[4]; induction 2% tetracaine, 72 h after removal
  visual score of challenge site: 2.1
[4]; induction Control, 2 h after removal
  visual score of challenge site: 1.6
[4]; induction Control, 24 h after removal
  visual score of challenge site: 1.0
[4]; induction Control, 48 h after removal
  visual score of challenge site: 0.8
[4]; induction Control, 72 h after removal
  visual score of challenge site: 0.6
[2]; induction formulation 2% tetracaine + 1% methyl nicotinate
  a" value: 10.6
[2]; induction formulation 2% tetracaine
  a" value: 12.8
[2]; induction formulation Control
  a" value: 8.8
[5]; application four, 2 h after removal
  visual irritation score: 2.7
[5]; application four, 24 h after removal
  visual irritation score: 2.6
[5]; application four, 48 h after removal
  visual irritation score: 1.8
[5]; application nine, 2 h after removal
  visual irritation score: 6.7
[5]; application nine, 24 h after removal
  visual irritation score: 6.6
[5]; application nine, 48 h after removal
  visual irritation score: 6.0
[5]; application one, 2 h after removal
  visual irritation score: 1.9
[5]; application one, 24 h after removal
  visual irritation score: 1.2
[5]; application one, 48 h after removal
  visual irritation score: 1.1
[5]; application seven, 2 h after removal
  visual irritation score: 5.8
[5]; application seven, 24 h after removal
  visual irritation score: 5.9
[5]; application seven, 48 h after removal
  visual irritation score: 5.6
